Assay results taken from patent publication US9248928B2, “Methods of manufacturing contact lenses for delivery of beneficial agents” (CooperVision International Holding Company, LP, priority 2012, dated 2016).
Structures can show the parent of a compound that is named as a salt. Where two headings read alike, the source gives them in different places.

What was measured:
[1] = Autoclave stability of cationic agents in packaging solution
Experimental: (§1) As used herein, a cationic agent is considered to be autoclave-stable in a given package and packaging solution if there is less than 2% degradation of the cationic agent after it is autoclaved two times in its intended package and packaging solution without a lens present, wherein the autoclave conditions used are 120° C. for 30 minutes at about 17 psi. A reference to 2× or 3× autoclave of a package is intended to include a step of allowing the package to cool to room temperature before and after the 2nd, and if applicable, 3rd autoclave treatments. The amount of degradation is determined using an HPLC method appropriate for the cationic agent being tested. Alternatively or additionally, a cationic agent is considered autoclave-stable in a given packaging solution if the percentage of cationic agent that can be extracted from the lens after 2× autoclave is more than 95% of the percentage of cationic agent that can be extracted from a non-autoclaved lens packaged in the same packaging solution and kept at room temperature for 24 hours, where the extraction method used is substantially as described in Example 4, or an equivalent method. The percentage of cationic agent extracted from the autoclaved (test) and non-autoclaved (control) lenses is determined relative to the amount of cationic agent taken up by the test and control lenses, respectfully. Thus, for example, a control lens may take up 100 μg of a cationic agent from a packaging solution after 24 hours at room temperature and 97 μg (i.e. 97%) of the cationic agent can be extracted from the lens. If the corresponding test (2× autoclaved) lens takes up 120 μg of the cationic agent from the packaging solution, but only 108 μg (i.e. 90%) of the cationic agent is extracted using the same extraction method as for the control lens, then there is considered to be a 7% difference between the amount cationic agent extracted from control and test lenses.
Both εPLL and epinastine have primary amine groups, whereas olopatadine and ketotifen have none. […] TRIS buffer drops in pH with increased temperature, down to a pH of about 4.3 during autoclave. […] Thus, in one example, the packaging solution used in the method of manufacturing the contact lenses described herein is temperature-sensitive. By temperature-sensitive, it is meant that the pH of the packaging solution drops by at least one (e.g a drop from pH 7.5 to pH 6.5) during autoclave at 120° C. for 30 minutes. In specific examples, the pH of the temperature-sensitive packaging solution drops during autoclave by at least 1.5, 2.0, or 2.5. Exemplary temperature-sensitive buffers include {[tris(hydroxymethyl)methyl]amino}propanesulfonic acid (TAPS), N,N-bis(21-hydroxyethyl)glycine (Bicine), tris(hycroxymethyl)methylamine (TRIS), N-tris(hydroxymethyl)methylglycine (Tricine), {[tris(hydroxymethyl)methyl]amino}ethanesulfonic acid (TES), 3-(N-morpholino)propanesulfonic acid (MOPS), and the like. […] In one such example, the packaging solution comprises a TRIS buffer. In a further example, the cationic agent comprises a primary amine. In yet a further example, the cationic agent is epinastine or εPLL and the packaging solution comprises a TRIS buffer.

[2] = Autoclave stability of εPLL in PBS or TRIS buffered saline by HPLC; format: physicochemical; conditions: 500 ppm εPLL, no lens
Experimental: […] The samples were tested by HPLC at a sufficient resolution to achieve a discernable peak for each molecular weight fraction of the εPLL.

[3] = for % of the epinastine taken up by the lens that released (extracted): PBS
Experimental: as §1
The packaged lenses were either autoclaved once or twice for 20 minutes at 120° C. and then kept at room temperature overnight, or kept at room temperature overnight without autoclaving. 1.2 ml PBS comprising 200 μg/ml epinastine HCL was autoclaved once or twice in a glass vial without a lens (autoclave control solution).
Each lens was blotted dry with lint-free paper, and placed in a vial containing 10 ml of an extraction medium consisting of 60 parts of 0.3% triethylamine in deionized (pH adjusted to 4.0 using phosphoric acid) and 40 parts methanol. The vials were sonicated for 30 minutes at room temperature. The lens were removed from the extraction solution and transferred to individual vials containing 5 ml of fresh extraction medium and sonicated again for 30 minutes. For each lens, the extraction media was combined to obtain 15 ml extraction medium for each lens and the amount of epinastine extracted from each lens was measured by HPLC.
The study was repeated using silicone hydrogel contact lenses prepared according to Example 1 and packaged in TRIS buffer (described above) comprising 150 μg/ml epinastine. The lenses were autoclaved 0-3 times each.

[4] = TBS, 9 autoclaves (so in the source)
[5] = Autoclave # 0, silicone hydrogel lens, TRIS buffer with 150 μg/ml epinastine
[6] = Autoclave # 1x, silicone hydrogel lens, TRIS buffer with 150 μg/ml epinastine
[7] = Autoclave # 2x, silicone hydrogel lens, TRIS buffer with 150 μg/ml epinastine
[8] = Autoclave # 3x, silicone hydrogel lens, TRIS buffer with 150 μg/ml epinastine
[9] = Ocufilcon D lens, Autoclaved, PBS with 200 μg/ml epinastine HCl
[10] = Ocufilcon D lens, Non-Autoclaved, PBS with 200 μg/ml epinastine HCl
[11] = Silicone hydrogel lens (2x autoclave), PBS with 200 μg/ml epinastine HCl
[12] = Silicone hydrogel lens, Autoclaved, PBS with 200 μg/ml epinastine HCl
[13] = Silicone hydrogel lens, Non-Autoclaved, PBS with 200 μg/ml epinastine HCl

epsilon poly-1-lysine [εPLL]
autoclave stability ([1]; in PBS): not autoclave-stable | autoclave stability ([1]; in TRIS buffer): autoclave-stable | Total # peaks ([2]; PBS, 0 autoclaves): 23 | Total peak area ([2]; PBS, 0 autoclaves): 16005557 | % Area (relative to non-autoclaved) ([2]; PBS, 2 autoclaves): 91% | Total # peaks ([2]; PBS, 2 autoclaves): 28 | Total peak area ([2]; PBS, 2 autoclaves): 14566887 | % Area (relative to non-autoclaved) ([2]; PBS, 4 autoclaves): 90% | Total # peaks ([2]; PBS, 4 autoclaves): 28 | Total peak area ([2]; PBS, 4 autoclaves): 14468122 | % Area (relative to non-autoclaved) ([2]; TBS, 2 autoclaves): 99% | Total # peaks ([2]; TBS, 2 autoclaves): 27 | Total peak area ([2]; TBS, 2 autoclaves): 14636372 | % Area (relative to non-autoclaved) ([2]; TBS, 4 autoclaves): 98% | Total # peaks ([2]; TBS, 4 autoclaves): 27 | Total peak area ([2]; TBS, 4 autoclaves): 14476291 | Total # peaks [2, 4]: 23 | Total peak area [2, 4]: 14800289

CN1CCC(=C2c3ccccc3CC(=O)c3sccc32)CC1 [ketotifen fumarate]
autoclave stability [1]: autoclave-stable

NC1=NCC2c3ccccc3Cc3ccccc3N12 (stereo not drawn) [epinastine]
autoclave stability ([1]; in PBS): not autoclave-stable | autoclave stability ([1]; in TRIS buffer): autoclave-stable | % Δ [3, 5]: 0.2% | Extracted Amt. [3, 5]: 148.1 µg | Δ [3, 5]: 0.3 µg | % Δ [3, 6]: 1.3% | Extracted Amt. [3, 6]: 148.6 µg | Δ [3, 6]: 1.9 µg | % Δ [3, 7]: 1.3% | Extracted Amt. [3, 7]: 145.4 µg | Δ [3, 7]: 1.9 µg | % Δ [3, 8]: 3.0% | Extracted Amt. [3, 8]: 85.9 µg | Δ [3, 8]: 2.6 µg | % Δ [3, 9]: 7% | Extr. Amt. [3, 9]: 240.4 µg | Δ (uptake minus extracted) [3, 9]: 18.5 µg | % Δ [3, 10]: 2% | Extr. Amt. [3, 10]: 243.5 µg | Δ (uptake minus extracted) [3, 10]: 5.6 µg | % Δ [3, 11]: 18% | Extr. Amt. [3, 11]: 163.4 µg | Δ (uptake minus extracted) [3, 11]: 36.3 µg | % Δ [3, 12]: 10% | Extr. Amt. [3, 12]: 184.5 µg | Δ (uptake minus extracted) [3, 12]: 20.1 µg | % Δ [3, 13]: 1% | Extr. Amt. [3, 13]: 181.7 µg | Δ (uptake minus extracted) [3, 13]: 1.3 µg | % of the epinastine taken up by the lens that released (extracted) ([3]; autoclaved ocufilcon D lens): about 93% | % of the epinastine taken up by the lens that released (extracted) ([3]; autoclaved silicone hydrogel lens): ~90% | % of the epinastine taken up by the lens that released (extracted) ([3]; non-autoclaved control ocufilcon D lens): 98% | % of the epinastine taken up by the lens that released (extracted) ([3]; non-autoclaved control silicone hydrogel lens): 99% | % of the epinastine taken up by the lens that released (extracted) ([3]; silicone hydrogel lens autoclaved a second time): about 82%

CN(C)CC/C=C1/c2ccccc2COc2ccc(CC(=O)O)cc21 [olopatadine HCl]
autoclave stability [1]: autoclave-stable
